According to patent US12503426B2, “Synthetic derivatives of oleoyl-lysophosphatidylinositol (oleoyl-LPI) and uses thereof” (LIPOVEXA SRL, priority 2017, dated 2025):

Key:
Glutag cells = test: GLP-1 secretion by Glutag cells; format: cell-based, murine; settings: Glutag cells, inhibitor 1 hour before oleoyl-LPI (PD98059 50 μM; H89 10 μM)
Method: Glutag cells were maintained in low glucose DMEM (Sigma) (1 g/L) containing 2.0 mM L-glutamine, 1.0 mM sodium pyruvate and supplemented with 10% FBS, 100 IU/ml penicillin, 100 μg/ml streptomycin at a 37° C. and 5% CO2.
(§1) Approximately 80,000 Glutag cells were plated in poly-L-lysine-coated 24-well culture plates and grown to about 80% confluence. NCI-H716 cells were seeded on growth factor reduced Matrigel™ (Becton Dickinson, Bedford, MA) in DMEM medium, supplemented with 10% FBS the day before the experiment. For NCI-H716 cells, approximately 25,000 cells were needed for this secretion experiment in order to have good stimulation with lower basal GLP-1 secretion. In brief, Glutag and NCI-H716 cells were washed twice and then incubated for 2 h with FBS-free DMEM containing 1% (M:C) alone (negative control), 10 μM forskolin as positive control (Sigma-Aldrich), or with different concentrations of Oleoyl-LPI. M:C was used as a solvent to prepare stock solutions of fatty acid derivatives and inhibitors. For secretion experiments, medium and cells were collected separately.
(§2) In separate studies, GLUTag or NCI-H716 cells were pre-treated for 1 hour with medium alone (1% DMSO, negative control), PD98059 (50 μM; Sigma Chemical Co.), H89 (10 μM; Santa Cruz) followed by treatment with oleoyl-LPI (20 μM), OEA (10 μM), AR231453(1 μM), PMA (10 μM) or forskolin (10 μM, positive control) in the presence of inhibitors, as appropriate, for about 2 h. Medium GLP-1 secretion was calculated as total GLP-1 content of medium normalised for the basal secretion of the control.
(§3) In order to investigate the role of different LPI species in enteroendocrine cells, murine (Glutag) and human (NCI-H716) L-cells were stimulated with the following different species of LPI: Arachidonyl-LPI, Stearoyl-LPI, Heptadecenoyl-LPI and oleoyl-LPI, as well as with OEA and LPC. Experiments were performed in duplicate, n=4 and the level of total GLP-1 was measured by ELISA.

ERK = ERK phosphorylation by Western blot, NCI-H716 cells; format: cell-based, human; settings: pre-treatment 1 hour, 50 μM, then oleoyl-LPI
Method: When cell cultures reached 80-90%, media were removed and cells were washed twice with 1×PBS. The cells were lysed in 150 μl (for one well of a 6 well plate) of Triton X-100 lysis buffer, containing phosphatase inhibitor cocktail (1:1000) (Sigma Aldrich, UK) and protease inhibitor (1:1000, Sigma Aldrich, UK). Cells were detached with scrapers and lysate were collected and centrifuged at 10,000 rpm, 4° C. for 5 minutes. The supernatant was then transferred to a 1.5 ml microcentrifuge tube and used for protein quantification. Cell lysates were stored at −20° C. for longer storage. All lysates were prepared on ice.
Non-specific antibody binding was prevented by incubating the nitrocellulose membrane in 5% milk in PBS-0.05% Tween-20 (v/v) for 30 minutes on a rotating plate. The membrane was then washed in PBS-0.05% Tween-20 (v/v) and then incubated with the primary antibody diluted in PBS-0.05% Tween-20 (v/v) on a rotating plate overnight at 4° C. After 24 hours, the membrane was washed 5× for 5 minutes with PBS-0.05% Tween-20 (v/v), and then incubated on a rotating plate with the appropriate secondary antibody for 1 hour at room temperature. […]

NCI-H716 cells = test: GLP-1 secretion by NCI-H716 cells (Examples 2-8); format: cell-based, human; settings: NCI-H716 cells, inhibitor 1 hour before oleoyl-LPI (PD98059 50 μM; H89 10 μM)
Method: NCI-H716 cells were maintained in 75 cm^2 tissue culture flasks (Corning) in RPMI 1640 media containing 2.0 mM L-glutamine, 1.5 g/L sodium bicarbonate, 10 mM HEPES buffer, 1.0 mM sodium pyruvate, and 4.5 g/L glucose and supplemented with 10% FBS at a 37° C. and 5% CO2. When plating for experiment, cell adhesion and endocrine differentiation were initiated by growing cells in dishes coated with growth factor reduced Matrigel diluted at the ratio of 1:2 (Becton Dickinson, Bedford, MA) in high-glucose DMEM, 10% FBS, 2 mM glutamine, 100 IU/ml penicillin, and 100 μg/ml streptomycin as described previously by De Bruine, a P., Dinjens, W. N., van der Linden, E. P., Pijls, M. M., Moerkerk, P. T., & Bosman, F. T. (1993) The American Journal of Pathology, Vol 142(3), pp 773-782, the disclosure of which is incorporated herein in its entirety by reference.
as §1, §2, §3

GPR55 mRNA = test: siRNA knockdown of GPR55 mRNA by real-time RT-PCR; format: cell-based, murine; settings: Glutag cells, 48 hours post transfection
Method: Transfection was performed according to the “Lipofectamine transfection protocol” (Invitrogen, Life Technologies) and optimised for a 6-well plate format. Briefly, cells were plated in complete growth medium at a density of 3.0×10^5/well in a 6-well plate and incubated at 37° C./5% CO2. Twenty-four hours later, when cells were ˜60% confluent, transfection was performed in RNAse-free conditions. 300 nM of total siRNA pool and 4.0 μl of Lipofectamine transfection reagent were diluted in separate tubes in Optimem and incubated for 5 min at room temperature (RT). The contents of the tubes were carefully mixed and incubated again for 20 min at RT. Cells were washed twice with sterile 1×PBS and incubated in 300 μL of Optimem. After 20 min, transfection complexes were added to the cells drop wise. Cells were then incubated for 4 hours before adding Optimem containing 30% serum without antibiotic. Cells were further incubated at 37° C./5% CO2 for 48 h before secretion experiment. […]
Transfection efficiency was quantified by real-time RT-PCR. […]
RT-qPCR was performed according to manufacturer's instructions (Cat. No. K0222, Fermentas). […] The relative changes in gene expression quantification were calculated using the relative ddCT analysis mode of the ABI 7500 Real-Time PCR system software.

Molecule	oleoyl-LPI induced GLP-1 secretion with inhibitor pre-treatment (Glutag cells)	ERK phosphorylation (ERK)	oleoyl-LPI induced GLP-1 secretion with inhibitor pre-treatment (NCI-H716 cells)	knockdown of GPR55 mRNA (GPR55 mRNA)
COc1cccc(-c2cc(=O)c3ccccc3o2)c1N [PD98059]	significantly reduced oleoyl-LPI induced GLP-1 secretion	substantially reduced ERK phosphorylation	significantly reduced oleoyl-LPI induced GLP-1 secretion	
GPR55 siRNA: murine siRNA against GPR55, ACAGGGAAGUGGAGAGAUA (SEQ ID NO: 3) (listed as RNA, chemistry not given here; listed as Mus musculus)				80%
